Test results reported in PMC10653858 (mBio, 2023).

Key:
LegAS4 = format: binding, L. pneumophila strain Philadelphia; details: pH 7.5
SET domain = format: binding, L. pneumophila; details: pH 8
LegAS4 enzymes = format: binding, L. pneumophila strain Philadelphia

ARTKQT-K(Biotin)-NH2 [H3 peptide (Ala1-Ala7)]
Peptide binding to wild-type LegAS4, in words (LegAS4): not binding the enzyme

C[S+](CC[C@H](N)C(=O)[O-])C[C@H]1O[C@@H](n2cnc3c(N)ncnc32)[C@H](O)[C@@H]1O (stereo partly drawn) [SAM]
SAM binding of the SET domain alone, in words (SET domain): greatly decreased SAM binding | SAM binding of the different proteins, in words (LegAS4 enzymes): same binding capacity to SAM
